Experimental data: patent publication US20070149483A1, “Methods and compounds for modulating triglyceride and vldl secretion” (priority 2003, published 2007)
Marks after values point to notes of the source that are not given here.

How the values were obtained:
Assay type in all cases: cell-based, rat
[1] = system: McA-RH7777 cells stably expressing human apoB100; test: Pulse-chase (1 h pulse, up to 3 h chase) of apoB100 and apoA-I secretion efficiency
Experimental: The cells were then incubated with chase medium for 15, 30 and 45 min. At the end of each chase time, the medium was collected and subjected to cumulative rate flotation centrifugation (Wang et al., 1999) to resolve apoB100-VLDL1 (Sf>100) and apoB100-VLDL2 (Sf 20-100) from other lipoproteins (i.e. IDL, LDL and HDL). The ^35S-apoB100 in each fraction was recovered by immunoprecipitation. Also, at the end of each chase time, the radiolabeled cells were harvested in 2 ml of ice-cold homogenization buffer (10 mM Tris-HCl, pH 7.4, 250 mM sucrose, 5 mM EDTA, and serine/cysteine protease inhibitor mixture), mixed with two 100-mm dishes of unlabeled cells, homogenized by passing ten times through a ball-bearing homogenizer, and subjected to subcellular fractionation and carbonate-treatment as described below.
Oleate and EPA were present in both pulse and chase media. The [^35S]-apoB100 from total cell lysates (FIG. 2A) or conditioned media (FIG. 2B) was immunoprecipitated, resolved by SDS-PAGE, and visualized by fluorography. Radioactivity associated with [^35S]-apoB100 was quantified. As shown in the top panels of FIG. 2A to 2B, the data is expressed as absolute amount of radioactivity associated with [^35S]-apoB100 at the end of 1-h pulse. As shown in the […] panels of FIG. 2A to 2B, the data is expressed as percent of the initial counts associated with ^35S-apoB100 at the end of 1-h pulse. […] The experiments were repeated and similar results were obtained.
It has been shown previously that VLDL, particles carry >80% of total TG but <10% of total apoB100 secreted from oleate-treated McA-RH777 cells (Wang et al., 1999, J. Biol. Chem. 274: 27793-27800). Thus the possibility was considered that the above pulse (30-min)-chase(60 min) experiment might fail to detect decreased secretion and increased post-translational degradation of apoB100 because n-3 fatty acid treatment was reported to selectively decrease apoB100 in VLDL fractions (Fisher and Ginsberg, 2002, J. Biol. Chem. 277: 17377-17380). In the next set of experiments, the pulse-labelling period was extended to 1 h to maximize [^35S]-labelling of apoB100 and to allow examination of potential posttranslational degradation. […] The high labelling of apoB100 at the end of 1-h pulse may reflect increased intracellular accumulation of newly synthesized apoB100 and/or impaired secretion. […] The secretion efficiency, which measures the proportion of total metabolically labelled [^35S]-apoB100 secreted at the end of chase was decreased from 60% to 40% in EPA-treated cells compared to OA-treated cells (FIG. 2B, bottom). […]

[2] = system: McA-RH7777 cells stably expressing human apoB100; test: Competitive ELISA of apoB100 protein in medium; settings: after 16-h incubation, n=3
Experimental: (§1) Cell Culture and Fatty Acid Treatments—Transfected McA-RH7777 cells stably expressing human apoB100 (McLeod et al., 1994, J. Biol. Chem. 269, 2852-2862) were cultured in Dulbecco's modified Eagle's medium (DMEM) containing 10% fetal bovine serum (FBS), 10% horse serum and 200 μg/ml G418. Routinely, the cells were incubated with 0.4 mM fatty acids for 16-18 h in the presence of 20% FBS prior to experiments.
Competitive Enzyme Linked Immunosorbent Assay (ELISA)—The ELISA plates were coated with human LDL (1 mg/ml in PBS, 16 h, 4° C.), blocked with skim milk (5% in PBS, 2 h, 37° C.), and washed three times with PBS containing 0.02% Tween-20. The plates were incubated with apoB monoclonal antibody 1D1 (1:64,000, 16 h, 4° C.) in the presence of serial diluted concentrations of human LDL or medium samples. The plates were washed and incubated with horseradish peroxidase-linked anti-mouse IgG antibody (1:10,000, 2 h, 37° C.), followed by addition of the liquid substrate system for ELISA (3,3′,5,5′-tetramethyl-benzidine). The reaction was quantified colorimetrically by spectrophotometer reading at OD665.

[3] = system: McA-RH7777 cells stably expressing human apoB100; test: Tandem mass spectrometry of PC and PE in membranes of subcellular organelles; settings: for PC content, Total / PC content, membranes of ER / PC content, membranes of cis/medial Golgi / PC content, membranes of distal Golgi / PE content, Total / PE content, membranes of ER / PE content, membranes of cis/medial Golgi / PE content, membranes of distal Golgi: control cells set as 100
Source text: Subcellular Fractionation—Three subcellular fractions (i.e., ER, fractions 1 through 3; cis/medial Golgi, fractions 4 through 8; distal Golgi, fractions 9 through 15) were obtained from the cell lysates using Nycodenz gradient centrifugation (Hammond and Helenius, 1994, J. Cell Biol. 126, 41-52; Rickwood et al., 1982, Anal. Biochem. 123, 23-31) of the post-nuclear supernatant as previously described (Tran et al., 2002). […] The membrane and lumen preparations from ER (Nycodenz fractions 1 through 3), cis/medial Golgi (fractions 4 through 8), and distal Golgi (fractions 9 through 15) were derived from cells pooled from eight 100-mm dishes. Lipids were extracted from the samples with chloroform/methanol/acetic acid/saturated NaCl/H2O (4:2:0.1:1:2, by volume) in the presence of 230 pmol dimirystoyl (14:0-14:0) PC and 110 pmol dipalmitoyl (16:0-16:0) PE as internal standards. Aliquots of lipid extracts were applied to tandem mass spectrometry, and the molecular species (i.e. fatty acid composition) of PC and PE was determined by daughter ion analysis in the negative ion mode as previously described (Tran et al., 2002; DeLong et al., 1999, J. Biol. Chem. 274, 29683-29688). The integrated area under the peak of each molecular species was quantified by comparing with those of internal standards.

[4] = system: McA-RH7777 cells stably expressing human apoB100; test: Synthesis and secretion of [3H]glycerol-labelled TG and PC
Experimental: as §1
Other Assays—The TG transfer activity of MTP was determined according to published method (Wetterau et al., 1992, Science 258, 999-1001) with modifications (Wang et al., 1999). The phosphatidate phosphohydrolase activity was determined by an established method (Jamal et al., 1991, J. Biol. Chem. 266, 2988-2996). Lipid extraction and analysis by TLC was performed as previously described (Tran et al., 2000). Protein was determined using the BCA™ protein assay kit (Pierce).

[5] = end of 2-h labelling with [^3H]glycerol, means ± SD of triplicate

## CCCCCCCC/C=C\CCCCCCCC(=O)O [Oleate, oleic acid]
[1]
  amount of [^35S] incorporated into apoB100 at the end of 1-h pulse: 6.40×10^4 cpm/dish
[2]
  amount of apoB100 protein accumulated in the medium: 2.74 ± 0.48 µg/mL
[3]
  PC content, Total: (156) % of control
  PC content, membranes of ER: (182) % of control
  PC content, membranes of cis/medial Golgi: (107) % of control
  PC content, membranes of distal Golgi: (173) % of control
  PE content, Total: (129) % of control
  PE content, membranes of ER: (172) % of control
  PE content, membranes of cis/medial Golgi: (112) % of control
  PE content, membranes of distal Golgi: (106) % of control
[3]; vs untreated control
  increase in PC mass in the ER: 82%
  increase in PC mass in the distal Golgi: 73%
  increase in PE mass in the ER: 72%
  increase in total PC mass associated with intracellular microsomes: 56%
  increase in total PE mass: 29%
[4]; [5]
  [^3H]PC Cell: 15.00 ± 0.23 cpm × 10^−3/dish
  [^3H]PC Medium: 4.10 ± 0.12 cpm × 10^−3/dish
  [^3H]TG Medium: 12.87 ± 1.59 cpm × 10^−3/dish

## CC/C=C\C/C=C\C/C=C\C/C=C\C/C=C\CCCC(=O)O [EPA, eicosapentaenoic acid]
[1]
  [^35S] incorporated into apoB100 at the end of 1-h pulse, greater than in oleate-treated cells: ~40%
  amount of [^35S] incorporated into apoB100 at the end of 1-h pulse: 9.43×10^4 cpm/dish
[1]; 3-h chase
  secretion efficiency (proportion of total metabolically labelled [^35S]-apoB100 secreted at the end of chase): 40%
[2]
  amount of apoB100 protein accumulated in the medium: 2.5 ± 0.43 µg/mL
[3]
  PC content, Total: (92)* % of control
  PC content, membranes of ER: (108)* % of control
  PC content, membranes of cis/medial Golgi: (70)* % of control
  PC content, membranes of distal Golgi: (94)* % of control
  PE content, Total: (185)* % of control
  PE content, membranes of ER: (216) % of control
  PE content, membranes of cis/medial Golgi: (127) % of control
  PE content, membranes of distal Golgi: (270)* % of control
[3]; vs untreated control
  increase in PE mass in the ER: 116%
  increase in PE mass in the distal Golgi: 170%
  increase in total PE mass: 85%
[4]; [5]
  [^3H]PC Cell: 15.80 ± 0.44 cpm × 10^−3/dish
  [^3H]PC Medium: 3.86 ± 0.57 cpm × 10^−3/dish
  [^3H]TG Cell: 40.84 ± 0.70^b cpm × 10^−3/dish
  [^3H]TG Medium: 7.18 ± 0.96^b cpm × 10^−3/dish
[4]; vs oleate-treated cells
  reduction in secretion of [^3H]glycerol-labelled TG: 50%
